What was measured:
PDE7A1 = molecular target: T1, PDE7A1 (Homo sapiens, UniProt Q13946); assay: PDE7 activity and inhibition assay (HPLC detection of cAMP and AMP); assay type: biochemical; settings: inhibitor final concentration 0.1 μg/μl; substrate cAMP; 90 minutes
T1 construct: purchased CALBIOCHEM 524751
Experimental: The activity of PDE7A1 was determined in an enzymatic assay as described below, using: • Enzyme: 0.005 U/μl PDE7A1 (Cat.#: 524751, CALBIOCHEM) • Substrate: 0.0008 μg/μl cAMP (Lot.#: BCBF5219V, SIGMA-ALDRICH) • Buffer: 10 mM Tris-HCl, pH 7.5 • Inhibitor as mentioned above: 0.3 μg/μl as a result final concentration 0.1 μg/μl
An example of the enzymatic assay for determining the activity of PDE7A1 is illustrated in FIG. 2. Briefly, substrate (10 μl), PDE7A1 (10 μl), and buffer (10 μl; as a control) were placed in an eppendorf tube in a total volume of 30 μl and immediately (at 0 minute) injected into HPLC (L-7420, HITACHI) and the contents of cAMP and AMP in the reaction mixture were detected at 254 nm under the following conditions:
Solvent: 0.2M NaH2PO4, 25 mM TBA-HS, 15% ACN, pH6
The peak areas of the cAMP and AMP were measured.
90 minutes later, the control mixture was injected again into the HPLC apparatus and the peak areas of cAMP and AMP were measured as described above and compared with that of the initial injection.
Reaction mixtures containing each of the four inhibitors (10 μl) in the same total volume were injected into the HPLC apparatus following the same procedure as described above and the peak areas of cAMP and AMP were measured and compared with that of the control sample. The percentages of inhibition were calculated.

PDE1 = PDE1 activity and inhibition assay (bis-p-nitrophenyl phosphate, OD 405 nm); assay type: biochemical; settings: inhibitor final concentration 0.125 μg/μl; substrate bis-p-nitrophenyl phosphate
Experimental: The activity of PDE1 was determined in an enzymatic assay as described below, using: • Enzyme: 10 μg/μl PDE1 (Lot.#: SLBD8711V, SIGMA-ALDRICH) • Substrate: 0.001 M Bis-p-nitrophenyl phosphate (Lot.#: 021M5003V, SIGMA-5 ALDRICH) • Buffer: 0.1M Tris-HCl, pH 8.9 • Inhibitor (trans-aconitic acid (TAA), Calycosin, Kaempferol 3-O-rutinoside, and Wogonin): 1 μg/μl (final concentration 0.125 μg/μl)
An example of the enzymatic assay is illustrated in FIG. 1. Briefly, substrate (50 μl) and buffer (200 μl) were placed in a plastic disposable cuvette (Cat.#: BL6224, Basic Life). PDE1 (100 μl) and each of the four inhibitors (50 μl) or the buffer (50 μl) as a control were then added into the cuvette. The total volume of the reaction mixture is 400 μl. After incubating the enzymatic reaction mixture for a suitable period of time, the optical density was detected by a spectrophotometer at a wave length of 405 nm (U-3300, HITACHI). The optical densities of the reaction mixtures containing the inhibitors were compared with that of the control mixture and the percentages of inhibition were calculated.

T1 sequence (Q13946 whole entry): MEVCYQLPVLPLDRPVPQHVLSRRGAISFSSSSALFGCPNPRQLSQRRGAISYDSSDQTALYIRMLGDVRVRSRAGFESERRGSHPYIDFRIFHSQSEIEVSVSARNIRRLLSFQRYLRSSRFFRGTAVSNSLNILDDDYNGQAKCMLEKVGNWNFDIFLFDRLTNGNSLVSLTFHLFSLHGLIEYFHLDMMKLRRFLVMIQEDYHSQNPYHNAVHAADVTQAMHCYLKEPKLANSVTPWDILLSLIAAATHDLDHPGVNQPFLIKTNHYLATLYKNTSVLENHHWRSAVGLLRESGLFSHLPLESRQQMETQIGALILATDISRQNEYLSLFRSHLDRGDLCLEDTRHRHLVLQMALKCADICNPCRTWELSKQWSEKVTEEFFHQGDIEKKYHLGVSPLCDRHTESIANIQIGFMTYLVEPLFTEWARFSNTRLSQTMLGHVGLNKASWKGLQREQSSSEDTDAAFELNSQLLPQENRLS

inhibitory activity against PDE7A1 (percentage of inhibition, FIG. 3) (PDE7A1): specifically inhibits PDE7A1
Compound: O=C(O)/C=C(\CC(=O)O)C(=O)O [TAA, trans-aconitic acid]
inhibitory activity against PDE1 (percentage of inhibition, FIG. 3) (PDE1): not PDE1

— patent publication US9610268B2, “Trans-aconitic acid compounds and uses thereof for inhibiting phosphodiesterase 7” (Academia Sinica, priority 2013, dated 2017)
